Several values for one entry are separate records, joined by “and”; a condition that tells them apart may be missing. Equal entries are not always repeated.
System: 361931-004-R-J1-PDC multicell spheroid viability
Test: Anticancer human tumor 361931-004-R-J1-PDC patient-derived colon adenocarcinoma cell line growth inhibition [PI3K]
Settings: for viability, T/C: stronger effect = lower value; active = viability on the fitted dose curve at most 10% of control; inactive = the rest
Method in brief: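 Viability of mixed-cell spheroids was determined after exposure to pairwise combinations, one partner being inavolisib, alpelisib, duvelisib or copanlisib. Highest tested concentration matched clinical Cmax where known and 10 microM where not, descending in half-log steps.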

[1] = curve of first compound, second compound 0.0316 µM
[2] = curve of first compound, second compound 0.1 µM
[3] = curve of first compound, second compound 0.316 µM
[4] = curve of first compound, second compound 1 µM
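Note: spheroids exposed to agents for seven days before readout.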

Cn1cnc2c(F)c(Nc3ccc(Br)cc3Cl)c(C(=O)NOCCO)cc21 + CC(Nc1ncnc2nc[nH]c12)c1cc2cccc(Cl)c2c(=O)n1-c1ccccc1
> 3 µM: IC50 [1] | IC50 [2] | IC50 [3] | IC50 [4]
inactive: viability, T/C (second compound 0.0316 µM, first compound 0.00949 µM) 98.1% | viability, T/C (second compound 0.0316 µM, first compound 0.03 µM) 95.3% | viability, T/C (second compound 0.0316 µM, first compound 0.0949 µM) 94% | viability, T/C (second compound 0.0316 µM, first compound 0.3 µM) 87.4% | viability, T/C (second compound 0.0316 µM, first compound 0.949 µM) 82% | viability, T/C (second compound 0.0316 µM, first compound 3 µM) 59.1% | viability, T/C (second compound 0.1 µM, first compound 0.00949 µM) 109% | viability, T/C (second compound 0.1 µM, first compound 0.03 µM) 96.2% | viability, T/C (second compound 0.1 µM, first compound 0.0949 µM) 94.2% | viability, T/C (second compound 0.1 µM, first compound 0.3 µM) 82.9% | viability, T/C (second compound 0.1 µM, first compound 0.949 µM) 87.4% | viability, T/C (second compound 0.1 µM, first compound 3 µM) 61.7% | viability, T/C (second compound 0.316 µM, first compound 0.00949 µM) 105% | viability, T/C (second compound 0.316 µM, first compound 0.03 µM) 102% | viability, T/C (second compound 0.316 µM, first compound 0.0949 µM) 88.8% | viability, T/C (second compound 0.316 µM, first compound 0.3 µM) 85.8% | viability, T/C (second compound 0.316 µM, first compound 0.949 µM) 82.9% | viability, T/C (second compound 0.316 µM, first compound 3 µM) 58.1% | viability, T/C (second compound 1 µM, first compound 0.00949 µM) 97.9% | viability, T/C (second compound 1 µM, first compound 0.03 µM) 94.4% | viability, T/C (second compound 1 µM, first compound 0.0949 µM) 93.3% | viability, T/C (second compound 1 µM, first compound 0.3 µM) 79.5% | viability, T/C (second compound 1 µM, first compound 0.949 µM) 81.4% | viability, T/C (second compound 1 µM, first compound 3 µM) 59.7% | viability, T/C (second compound 3.16 µM, first compound 0.00949 µM) 92.8% | viability, T/C (second compound 3.16 µM, first compound 0.03 µM) 96.2% | viability, T/C (second compound 3.16 µM, first compound 0.0949 µM) 90.9% | viability, T/C (second compound 3.16 µM, first compound 0.3 µM) 91.3% | viability, T/C (second compound 3.16 µM, first compound 0.949 µM) 77% | viability, T/C (second compound 3.16 µM, first compound 3 µM) 48.9% | viability, T/C (second compound 10 µM, first compound 0.00949 µM) 99.1% | viability, T/C (second compound 10 µM, first compound 0.03 µM) 92.4% | viability, T/C (second compound 10 µM, first compound 0.0949 µM) 86.9% | viability, T/C (second compound 10 µM, first compound 0.3 µM) 85.2% | viability, T/C (second compound 10 µM, first compound 0.949 µM) 66.5% | viability, T/C (second compound 10 µM, first compound 3 µM) 33%
2.88 µM: IC50 (curve of first compound, second compound 3.16 µM)
1.67 µM: IC50 (curve of first compound, second compound 10 µM)

CCN1CCN(Cc2ccc(Nc3ncc(F)c(-c4cc(F)c5nc(C)n(C(C)C)c5c4)n3)nc2)CC1
inactive: viability, T/C (compound 0.00316 µM) 104% (2×) and 94% and 103% | viability, T/C (compound 0.01 µM) 105% [middle of 4 runs] | viability, T/C (compound 0.1 µM) 101% [middle of 4 runs]
> 1 µM: IC50 (curve of compound)

CCCS(=O)(=O)Nc1ccc(F)c(C(=O)c2c[nH]c3ncc(-c4ccc(Cl)cc4)cc23)c1F + COc1c(OCCCN2CCOCC2)ccc2c3n(c(=NC(=O)c4cnc(N)nc4)nc12)CCN3
0.0487 µM: IC50 [3]
inactive: viability, T/C (second compound 0.00316 µM, first compound 0.0316 µM) 102% | viability, T/C (second compound 0.00316 µM, first compound 0.1 µM) 104% | viability, T/C (second compound 0.00316 µM, first compound 0.316 µM) 93.7% | viability, T/C (second compound 0.00316 µM, first compound 1 µM) 89.8% | viability, T/C (second compound 0.00316 µM, first compound 3.16 µM) 72.3% | viability, T/C (second compound 0.01 µM, first compound 0.0316 µM) 107% | viability, T/C (second compound 0.01 µM, first compound 0.1 µM) 93.1% | viability, T/C (second compound 0.01 µM, first compound 0.316 µM) 94% | viability, T/C (second compound 0.01 µM, first compound 1 µM) 88.1% | viability, T/C (second compound 0.01 µM, first compound 3.16 µM) 75.6% | viability, T/C (second compound 0.0316 µM, first compound 0.0316 µM) 93% | viability, T/C (second compound 0.0316 µM, first compound 0.1 µM) 87.3% | viability, T/C (second compound 0.0316 µM, first compound 0.316 µM) 77.5% | viability, T/C (second compound 0.0316 µM, first compound 1 µM) 83.3% | viability, T/C (second compound 0.0316 µM, first compound 3.16 µM) 69.4% | viability, T/C (second compound 0.1 µM, first compound 0.0316 µM) 89.1% | viability, T/C (second compound 0.1 µM, first compound 0.1 µM) 72.5% | viability, T/C (second compound 0.1 µM, first compound 0.316 µM) 67.4% | viability, T/C (second compound 0.1 µM, first compound 1 µM) 53% | viability, T/C (second compound 0.1 µM, first compound 3.16 µM) 47.6% | viability, T/C (second compound 0.316 µM, first compound 0.0316 µM) 54.1% | viability, T/C (second compound 0.316 µM, first compound 0.1 µM) 45.5% | viability, T/C (second compound 0.316 µM, first compound 0.316 µM) 28.9% | viability, T/C (second compound 0.316 µM, first compound 1 µM) 27.4% | viability, T/C (second compound 0.316 µM, first compound 3.16 µM) 17.8% | viability, T/C (second compound 1 µM, first compound 0.0316 µM) 20.6% | viability, T/C (second compound 1 µM, first compound 0.1 µM) 21.3% | viability, T/C (second compound 1 µM, first compound 0.316 µM) 14% | viability, T/C (second compound 1 µM, first compound 1 µM) 9.73%
1.57 µM: IC50 [2]
active: viability, T/C (second compound 0.00316 µM, first compound 10 µM) 7.97% | viability, T/C (second compound 0.01 µM, first compound 10 µM) 6.49% | viability, T/C (second compound 0.0316 µM, first compound 10 µM) 6.55% | viability, T/C (second compound 0.1 µM, first compound 10 µM) 5.33% | viability, T/C (second compound 0.316 µM, first compound 10 µM) 3.29% | viability, T/C (second compound 1 µM, first compound 3.16 µM) 7.59% | viability, T/C (second compound 1 µM, first compound 10 µM) 2.7%
4.48 µM: IC50 [1]
4.62 µM: IC50 (curve of first compound, second compound 0.00316 µM)
4.73 µM: IC50 (curve of first compound, second compound 0.01 µM)
< 0.0316 µM: IC50 [4]

From PubChem BioAssay AID1963979 (Molecular Pharmacology Branch, DTP, NCI, 2024)
